Earlier results in US20220401579A1, “INCLUSION COMPLEXES OF PHARMACEUTICALS AND CYCLIC OLIGOMERS” (DISPERSOL TECHNOLOGIES, LLC, priority 2019, published 2022).
Where two headings read alike, the source gives them in different places. Blank lines part the entries; values can stand above or below the compound they belong to.

Columns and labels:
[1] = for solubility in water / aqueous media (descriptive): water or aqueous media
[2] = granulate released in the proximal small intestine

SMILES: CCC(C)n1ncn(-c2ccc(N3CCN(c4ccc(OCC5COC(Cn6cncn6)(c6ccc(Cl)cc6Cl)O5)cc4)CC3)cc2)c1=O (stereo not shown) [Itraconazole, 2-butan-2-yl-4-[4-[4-[4-[[2-(2,4-dichlorophenyl)-2-(1,2,4-triazol-1-ylmethyl)-1,3-dioxolan-4-yl]methoxy]phenyl]-1-piperazinyl]phenyl]-1,2,4-triazol-3-one]
solubility in alcohols (descriptive) ([1]; alcohols): very slightly soluble | solubility in dichloromethane (descriptive) ([1]; dichloromethane): freely soluble | log (n-octanol/water) partition coefficient ([1]; pH 8.1): 5.66 | solubility in water / aqueous media (descriptive) [1]: insoluble

SMILES: COC(=O)c1ccc2c(c1)NC(=O)/C2=C(\Nc1ccc(N(C)C(=O)CN2CCN(C)CC2)cc1)c1ccccc1 [Nintedanib esylate, 1H-Indole-6-carboxylic acid, 2,3 dihydro-3-[[[4-[methyl[(4-methyl-1-piperazinyl)acetyl]amino]phenyl]amino]phenylmethylene]-2-oxo-,methyl ester, (3Z)-, ethanesulfonate (1:1)]
intrinsic pH of saturated solution in water ([1]; saturated solution in water): 5.7 | concentration of a saturated solution in water ([1]; water): 2800 µg/mL | solubility in water / aqueous media (descriptive) [1]: soluble

SMILES: CC(O)COC[C@H]1O[C@@H]2O[C@H]3[C@H](O)[C@@H](O)[C@@H](O[C@H]4[C@H](O)[C@@H](O)[C@@H](O[C@H]5[C@H](O)[C@@H](O)[C@@H](O[C@H]6[C@H](O)[C@@H](O)[C@@H](O[C@H]7[C@H](O)[C@@H](O)[C@@H](O[C@H]8[C@H](O)[C@@H](O)[C@@H](O[C@H]1[C@H](O)[C@H]2O)O[C@@H]8COCC(C)O)O[C@@H]7COCC(C)O)O[C@@H]6COCC(C)O)O[C@@H]5COCC(C)O)O[C@@H]4COCC(C)O)O[C@@H]3COCC(C)O (stereo partly drawn) [HPBCD, hydroxy propyl β cyclodextrin]
water solubility ([1]; water): > 600 mg/mL

More lines, now with the values ahead:

solubility in PEG 400 (descriptive) ([1]; PEG 400): soluble | solubility in ethanol (descriptive) ([1]; ethanol): slightly soluble | solubility in water / aqueous media (descriptive) [1]: practically insoluble
SMILES: CNC(=O)c1cc(Oc2ccc(NC(=O)Nc3ccc(Cl)c(C(F)(F)F)c3)cc2)ccn1 [Sorafenib, 4-[4-({[4-chloro-3-(trifluoromethyl)phenyl]carbamoyl}amino)phenoxy]-N-methylpyridine-2-carboxamide]

solubility in organic solvents (descriptive) ([1]; organic solvents (e.g., acetone, polyethylene glycol 400)): only slightly soluble | solubility in water / aqueous media (descriptive) [1]: practically insoluble | absolute bioavailability (20 mg dose, fasted state): approximately 66% | decrease in AUC compared to tablet [2]: 29% | decrease in Cmax compared to tablet [2]: 56%
SMILES: O=C(NC[C@H]1CN(c2ccc(N3CCOCC3=O)cc2)C(=O)O1)c1ccc(Cl)s1 [Rivaroxaban, 5-Chloro-N-({(5S)-2-oxo-3-[4-(3-oxo-4-morpholinyl)phenyl]-1,3-oxazolidin-5-yl}methyl)-2-thiophenecarboxamide]

median Tmax (fasted): 2.00 h | median Tmax (fed): 3.98 h | increase in exposure after food intake compared to fasted conditions (fed versus fasted): approximately 20%
SMILES: COC(=O)c1ccc2c(c1)NC(=O)/C2=C(\Nc1ccc(N(C)C(=O)CN2CCN(C)CC2)cc1)c1ccccc1 [Nintedanib, 1H-Indole-6-carboxylic acid, 2,3 dihydro-3-[[[4-[methyl[(4-methyl-1-piperazinyl)acetyl]amino]phenyl]amino]phenylmethylene]-2-oxo-,methyl ester]
